Laboratory results as given in PMC6000956, “Immunomodulatory activities of pixatimod: emerging nonclinical and clinical data, and its potential utility in combination with PD-1 inhibitors” (Journal for Immunotherapy of Cancer, 2018).
Marks after values point to notes of the source that are not given here.

Key:
[1] = Toxicokinetics in the 1 month IV toxicology study in beagle dogs; type: in vivo; conditions: dog, plasma
Procedure: (§1) A 1 month toxicology study of pixatimod in beagle dogs was performed under OECD Good Laboratory Practice (GLP) to assess the toxicity and toxicokinetic profile of pixatimod with 5 intravenous, short term (approximately 1 h) infusions at three defined dose levels of 2.5, 7.5 and 20 mg/kg weekly over 29 days. Blood samples were collected for toxicokinetic investigation to provide information on the systemic exposure. Parameters monitored included mortality and morbidity, clinical signs, food consumption, body weight and body temperature, ophthalmoscopy and electrocardiographic measurements. Laboratory investigations were performed using haematology (ADVIA 120), coagulation (AMAX Density Plus Coagulometer), clinical chemistry (VITROS 950) and urinalysis (URYXXON 300). At the end of the treatment, all animals were euthanized and subjected to a complete necropsy with selected organs weighed and followed by a detailed histopathology evaluation. Bone marrow smears from the femur and sternum were prepared at necropsy, fixed and stained with May-Grünwald and Giemsa stain for analysis. Blood samples obtained during the Phase Ia monotherapy study (PG545102) were collected weekly and the parameters reported herein were analysed by local hospital laboratories.
(§2) Plasma samples were analysed using a LC-MS/MS method as previously described. Pharmacokinetic parameters in animal studies were determined by non-compartmental analyses (NCA) of the mean plasma pixatimod concentration vs time profiles for each dose using the linear trapezoidal method in WinNonlin 5.2.1. For comparison with previous animal studies, exposure data (AUC0-last) in clinical samples were derived using individual subject NCA type exposure parameters from the original plasma concentration data using R (64-bit) Version 3.0.1.

[2] = Plasma exposure in the Phase Ia monotherapy study (PG545102), IV infusion; type: in vivo; conditions: human
Procedure: as §1, §2

[3] = tested on: 4T1.2 cells; test: Syngeneic 4T1.2 breast cancer model, tumor growth; type: in vivo, Balb/c mice; conditions: day 18
Procedure: (§3) Female Balb/c mice (6–8 weeks) were obtained from the Walter & Eliza Hall Institute (Melbourne, Australia). Animal experiments were performed in accordance with institutional guidelines of the Peter MacCallum Cancer Centre. To determine the utility of pixatimod in combination with a PD-1 checkpoint inhibitor antibody (clone RMP1–14 or isotype control antibody 2A3, Bio-X-Cell, NH, USA), mice were inoculated with 1 × 10^5 4T1.2 cells into the mammary fatpad. One week later, mice with similar sized tumors (mean tumor volume 56 mm^3) were randomised into four groups (n = 6 mice per group): saline + isotype antibody, pixatimod + isotype antibody, saline + anti-PD-1 antibody and pixatimod + anti-PD-1 antibody. Pixatimod was administered at 15 mg/kg IP weekly for 3 weeks (days 1, 8 and 15) and anti-PD-1 or isotype antibody (200 μg) were given IP on days 1, 4, 8, 11 and 15. […]
In the 4T1.2 model, the percentage tumor growth inhibition was determined according to the following formula: 100 × (1-ΔT/ ΔC) where ΔC and ΔT were calculated by subtracting the mean tumor volume in each group on day 1 of treatment from the mean tumor volume on the day of analysis. […] The frequency of clinical observations, and necropsy and histopathology findings, was calculated as applicable. […]

[4] = tested on: 4T1.2 tumors; test: Flow cytometry of immune cells in 4T1.2 tumors and spleens (satellite groups, day 11); type: in vivo, Balb/c mice
Procedure: as §3, with “15. The experiment was ended on day 18 post treatment initiation (25 days post inoculation) due to emerging toxicities in all treatment groups (e.g. piloerection).” for “15.”
Immune cells from the collagenase (Collagenase IV, Worthington Biochemical Corporation, NJ, USA) processed tumors and spleens were analysed by flow cytometry using an LSR II analyser (BD Biosciences). […]

[5] = parameters: method as in PMID 25754234; conditions: Mouse, 15 mg/kg IV (HED 73 mg); cited from earlier work
[6] = parameters: method as in PMID 21285983; conditions: tumor-bearing immunocompetent mice; cited from earlier work

CC(C)CCC[C@@H](C)[C@H]1CC[C@H]2[C@@H]3CC[C@H]4C[C@@H](O[C@@H]5O[C@H](COS(=O)(=O)O)[C@@H](O[C@H]6O[C@H](COS(=O)(=O)O)[C@@H](O[C@H]7O[C@H](COS(=O)(=O)O)[C@@H](O[C@H]8O[C@H](COS(=O)(=O)O)[C@@H](OS(=O)(=O)O)[C@H](OS(=O)(=O)O)[C@H]8OS(=O)(=O)O)[C@H](OS(=O)(=O)O)[C@H]7OS(=O)(=O)O)[C@H](OS(=O)(=O)O)[C@H]6OS(=O)(=O)O)[C@H](OS(=O)(=O)O)[C@H]5OS(=O)(=O)O)CC[C@]4(C)[C@H]3CC[C@]12C [pixatimod]
AUC(0-t) ([1]; 2.5 mg/kg, 2.5 mg/kg weekly IV (HED 83 mg), read-out: AUC0-last Week 1): 697 µg·h/mL | AUC(0-t) ([1]; 2.5 mg/kg, 2.5 mg/kg weekly IV (HED 83 mg), read-out: AUC0-last Week 4): 1370 µg·h/mL | AUC(0-t) ([1]; 7.5 mg/kg, 7.5 mg/kg weekly IV (HED 250 mg), read-out: AUC0-last Week 1): 1810 µg·h/mL | AUC(0-t) ([1]; 7.5 mg/kg, 7.5 mg/kg weekly IV (HED 250 mg), read-out: AUC0-last Week 4): 4940 µg·h/mL | AUC(0-t) ([1]; 20 mg/kg, 20 mg/kg weekly IV (HED 666 mg), read-out: AUC0-last Week 1): 6880 µg·h/mL | AUC(0-t) ([1]; 20 mg/kg, 20 mg/kg weekly IV (HED 666 mg), read-out: AUC0-last Week 4): 10500 µg·h/mL | AUC(0-t) ([2]; 25 mg, 25 mg weekly IV, read-out: AUC0-last Week 1): 465 µg·h/mL | AUC(0-t) ([2]; 25 mg, 25 mg weekly IV, read-out: AUC0-last Week 4): 610 µg·h/mL | AUC(0-t) ([2]; 50 mg, 50 mg weekly IV, read-out: AUC0-last Week 1): 709 µg·h/mL | AUC(0-t) ([2]; 50 mg, 50 mg weekly IV, read-out: AUC0-last Week 4): 1690 µg·h/mL | AUC(0-t) ([2]; 100 mg, 100 mg weekly IV, read-out: AUC0-last Week 1): 1210 µg·h/mL | AUC(0-t) ([2]; 100 mg, 100 mg weekly IV, read-out: AUC0-last Week 4): 2380 µg·h/mL | AUC(0-t) ([2]; 150 mg, 150 mg weekly IV, read-out: AUC0-last Week 1): 1440 µg·h/mL | AUC(0-t) ([2]; 150 mg, 150 mg weekly IV, read-out: AUC0-last Week 4): 2780 µg·h/mL | Tumor growth compared to the vehicle plus isotype antibody (Control) group [3]: significantly inhibited | tumor growth inhibition (%TGI) ([3]; pixatimod 15 mg/kg IP weekly x3, antibody 200 μg IP twice weekly): 68% | abundance of CD4+ or CD8+ T cells or NK cells in the spleens compared to control mice ([4]; day 11, spleens): little or no increase | intratumoral NK cells ([4]; pixatimod alone, 4T1.2 tumors): didn’t significantly increase | AUC0-last Week 1 [5]: 1358 ^c μg.h/mL | exposure (AUC) required to achieve efficacy as a monotherapy [6]: 687 µg·h/mL
